d = 2'-deoxy (DNA); m = 2'-O-methyl; r = 2'-OH (RNA); f = 2'-fluoro
Columns and labels:
[1] = Stability of siRNAs in human plasma in vitro (gel, ratio of the longest fragments RL); assay type: in vitro ADME; settings: 50% human plasma
Description: The siRNAs (20 μM, 10 μl) obtained in Preparation Example 1 were incubated with 50% human plasma (HP) at 37° C. in vitro for a certain time and samples were taken therefrom. Specifically, 10 μl samples were taken at 0, 2, 4, 6, 8, 24 and 48 hours respectively and immediately snap frozen in liquid nitrogen, followed by cryopreservation at −80° C. for future use. 20 wt % non-denaturing polyacrylamide gel was formulated, and 10 μl 5-fold diluted above samples (dilution solution: 1×PBS buffer at pH 7.4) and 4 μl loading buffer (20 mM EDTA, 36 wt % glycerol, 0.06 wt % bromophenol blue) were mixed and then loaded into the gel to perform electrophoresis for about 60 minutes under 80 mA constant current. After electrophoresis finished, the gel was stained with 1× Sybr Gold dye (Invitrogen, Cat. 11494) for 15 minutes followed by imaging.
The ratio of the longest fragments remained after incubating the test siRNAs and control siRNAs with human plasma to the longest fragments of the siRNAs without the treatment of human plasma (i.e., the markers shown in FIG. 3) (also referred to as ratio of the longest fragments, RL) is calculated by reading the grayscale values quantitatively.

HBV gene = settings: prior application CN102140461B; cited from earlier work
[2] = prior application CN102140461B; cited from earlier work
[3] = prior application CN102140461B; cited from earlier work; remark: listed apart in the source
HBsAg [4] = settings: 0.1 mg/kg gastric gavage daily for 7 days
Description: The drug dosages for all animals were calculated based on the body weight and the administration volume was 10 ml/kg. The PBS group and each of the RBP131/X2M2 groups were administered with a single dose via tail vein, and the entecavir group was administered by gastric gavage daily for 7 consecutive days, i.e., once a day from day 0 to day 6. Half of the animals was sacrificed in batches at day 7 and day 28, respectively. The expression levels of HBsAg in liver tissue were detected by the detection method as described above.

HBsAg [5] = settings: 25 ng/g subcutaneously twice a week (day 0, 4, 7, 11, 14), day 7 to 28
Description: The drug dosages for all animals were calculated based on the body weight and the administration volume was 10 ml/kg. […] The blood was taken from mouse orbital venous plexus before administration and at day 7, 14, 21, and 28 after administration, and serum HBsAg levels were measured for each time point.
The volume of the blood taken out from the orbit was about 0.5 ml each time, and the volume of the serum was no less than 200 μl after centrifugation. HBsAg CLIA kit (Autobio, CL0310) was used to detect the expression levels of HBsAg in serum. The remaining expression of HBsAg was calculated as follows:
The remaining expression of HBsAg=(the content of HBsAg in the test group/the content of HBsAg in the PBS control group)×100%, wherein the content of HBsAg was expressed in nanograms of HBsAg per gram of liver tissue proteins.

HepG2.2.15 cells = test: MTT cytotoxicity assay in HepG2.2.15 cells; assay type: cell-based; settings: 500 nM concentration
rat primary hepatocytes = test: MTT cytotoxicity assay in rat primary hepatocytes; assay type: cell-based; settings: 500 nM concentration
HBV mRNA = test: Inhibition of HBV mRNA expression in transfected HepG2.2.15 cells (fluorescent qPCR); assay type: cell-based; settings: 50 nM, 10 nM and 1 nM siRNA, 48 hours after transfection
Description: HepG2.2.15 cells were purchased from ATCC, cultured with DMEM complete medium (Gibco) containing 10% fetal bovine serum (FBS, Gibco), 2 mM L-glutamine (Gibco) and 380 μg/ml G418 in an incubator containing 5% CO2/95% air at 37° C.
When using the siRNAs against the X gene region of HBV or the non-specific siRNAs as negative controls synthesized in Preparation Example 1 (all of which were synthesized by Suzhou Ribo Life Science Co., Ltd.) to transfect cells, Lipofectamine™ 2000 (Invitrogen) was used as a transfection reagent. The specific procedures thereof may refer to the instruction provided by the manufacturer. […]
The final concentrations of the siRNAs were 50 nM, 10 nM and 1 nM, respectively. The expression levels of HBV mRNA in the above harvested cells were measured by real-time fluorescent qPCR 48 hours after transfection. Specifically, RNeasy Mini Kit (QIAGEN Co., Cat. 74106) was used to extract total RNAs according to the instructions thereof, and the extracted total RNAs were reverse transcribed into cDNAs, and then the inhibitory efficiency of the siRNAs on the expression of HBV mRNA in HepG2.2.15 cells was detected by fluorescent qPCR method. […]
In this fluorescent qPCR method, the inhibitory activity of siRNA was expressed as the remaining expression of HBV gene, and was calculated as follows: […]

In the case of “CA2: alternating modifications; sense CmCUmUGmAGmGCmAUmACmUUmCAmAAmdTdT, antisense UmUUmGAmAGmUAmUGmCCmUCmAAmGGmdTdT (sense CCUUGAGGCAUACUUCAAATT; antisense UUUGAAGUAUGCCUCAAGGTT; sugars from the 5' end mrmrmrmrmrmrmrmrmrmdd, backbone not given here) [reference compound]”, the “RL (ratio of the longest fragments) 0 h” value ([1]; 37° C., 0 h) is reported as 100.0%, the “RL (ratio of the longest fragments) 2 h” value ([1]; 37° C., 2 h) is reported as 86.9% and the “RL (ratio of the longest fragments) 4 h” value ([1]; 37° C., 4 h) is reported as 76.5%. For the same compound, the “RL (ratio of the longest fragments) 6 h” value ([1]; 37° C., 6 h) was 68.8%, the “RL (ratio of the longest fragments) 8 h” value ([1]; 37° C., 8 h) was 67.7% and the “RL (ratio of the longest fragments) 24 h” value ([1]; 37° C., 24 h) was 48.7%. The “RL (ratio of the longest fragments) 48 h” value ([1]; 37° C.) was 52.0%, the “plasma stability (in words)” value ([1]; up to 48 h) was “improved but is still not satisfactory” and the “activity at cell level compared to unmodified siRNA CA1” value (HBV gene) was “poorer activity at cell level”. For the same compound, the “cytotoxicity compared to unmodified siRNA CA1” value [2] was “higher cytotoxicity” and the stability in blood [3] was “fails to reach a stable state in the blood”.

With `C=C1[C@H](CO)[C@@H](O)C[C@@H]1n1cnc2c(=O)[nH]c(N)nc21` [ETV, entecavir] the “inhibitory effect on the expression of HBsAg in the liver (in words)” value (HBsAg [4]) was “no inhibitory effect”.

In the case of interferon [IFN], the “inhibitory effect on the expression of HBsAg in serum (in words)” value (HBsAg [5]) is reported as “no inhibitory effect”.

For “X2M2: siRNA against HBV X gene; sense CmCmUmUmGAGGCmAUmACmUmUmCmAAA-dTdT, antisense UfUmUfGAAGUfAUGCCUfCAAGG-dTdT; covers S++, S−−, S+−, S−+ (sense CCUUGAGGCAUACUUCAAATT; antisense UUUGAAGUAUGCCUCAAGGTT; sense: DNA at T, 2'-O-methyl at CU, RNA at AG, backbone not given here; antisense: sugars from the 5' end fmfrrrrfrrrrrfrrrrrdd, backbone not given here; phosphorothioate variants at dT overhangs exist)”, the “cytotoxicity by MTT assay” value (HepG2.2.15 cells) was “no cytotoxicity was observed”, the “cytotoxicity by MTT assay” value (rat primary hepatocytes) was “no cytotoxicity was observed” and the “inhibitory activity on HBV mRNA expression in HepG2.2.15 cells (FIG. 2, in words)” value (HBV mRNA) was “excellent activity at cell level”. The “RL (ratio of the longest fragments) 48 h” value ([1]; 37° C.) was no less than 90%, the “band position / full-length state on gel (FIG. 3)” value ([1]; up to 48 h) was “maintain a full-length state all the time” and the “plasma stability (in words)” value ([1]; up to 48 h) was “more excellent plasma stability than siRNA A4”.
